Values joined by “and” are separate entries in the source; they are usually repeats but may differ in a detail not shown here. Identical values can stand only once. After the bases stand the sugars from the 5' end (letter, count) and the backbone: PS all phosphorothioate, else s phosphorothioate and o phosphodiester by linkage. Methylation of C is not given here. e = 2'-O-(2-methoxyethyl) (MOE); k = constrained ethyl (cEt); d = 2'-deoxy (DNA)

The text below walks through data of the OligoGym collection.

This data set addresses IRF4. As to conditions: ASO.

Consider TCATGATATTAGAGAC (sugars k3 d10 k3, PS), for which, for the setting “SK-MEL-28, 4 µM”, the target mRNA inhibition came out at 35%. Same read-out and setting: next, GTGCAGTTCCGTAGTC (sugars k3 d10 k3, PS): 21%. As to TTTATCATCCGAAAAG (sugars k3 d10 k3, PS), the target mRNA inhibition (MM.1R, 1 µM) turned out to be 7%. Same read-out and setting: the same measure for AACGAGCCAGTGCACA (sugars k3 d10 k3, PS): -1%. As for “TGGGATTATATACTGG (sugars kkddddddddddkeke, PS)”, the target mRNA inhibition was 21% (MM.1R, 0.0625 µM); 43% (MM.1R, 0.25 µM); 68% and 60% (MM.1R, 1 µM); 83% (MM.1R, 4 µM). Consider TGGGTATTTATAACCG (sugars k3 d10 k3, PS), for which the target mRNA inhibition (MM.1R, 1 µM) was determined as 4%. Take GGGCTGTCCCTAGTGC (sugars k3 d10 k3, PS): the target mRNA inhibition (SK-MEL-28, 4 µM) was -9%. On the same count and under the same terms, the same measure for GTGTTTGGTGGGAATC (sugars k3 d10 k3, PS): 46%; for TAAAGACCTTAACCAA (sugars k3 d10 k3, PS): 30%.

Turning to CATGGCAGTGGAGCTC (sugars k3 d10 k3, PS), under “SK-MEL-28, 4 µM”, the target mRNA inhibition was 87% and 82%.

As to GTGGCATCATGTAGTT (sugars k3 d10 k3, PS), for the setting “SK-MEL-28, 4 µM”, the target mRNA inhibition came out at 27%.

Take ACGAGGTTGCCGAGAT (sugars k3 d10 k3, PS): the target mRNA inhibition by setting is: (MM.1R, 0.0625 µM) -16%; (MM.1R, 0.25 µM) 7%; (MM.1R, 1 µM) 62% and 41%; (MM.1R, 4 µM) 78%.

As for TTTACTAACTGGCTTC (sugars k3 d10 k3, PS), the target mRNA inhibition (SK-MEL-28, 4 µM) was determined as 45%. Take GTGCACTCGCGCAAAG (sugars k3 d10 k3, PS): where the note is “MM.1R, 1 µM”, the target mRNA inhibition is -5%. Regarding TCCTCAACCGCTGAAC (sugars k3 d10 k3, PS), the target mRNA inhibition (SK-MEL-28, 4 µM) was 37%.

In the case of GTCAAAGAGCTTGCAG (sugars k3 d10 k3, PS), the target mRNA inhibition (SK-MEL-28, 4 µM) was found to be 44%. For TCTACTGGAGTCAAGC (sugars k3 d10 k3, PS), under “MM.1R, 1 µM”, the target mRNA inhibition was 30%. In the case of GAATGCTCTCCATCAA (sugars k3 d10 k3, PS), the target mRNA inhibition (SK-MEL-28, 4 µM) is 45%. With GCTCATGGCTGATAAT (sugars k3 d10 k3, PS), the target mRNA inhibition (MM.1R, 1 µM) was -17%. As to “TGTAGTATGAGAAACG (sugars kddddddddddkekek, PS)”, the target mRNA inhibition (MM.1R, 1 µM) was 7%. AAAAGAGCCGCCACAT (sugars k3 d10 k3, PS): where the note is “SK-MEL-28, 4 µM”, the target mRNA inhibition came to 16%. CACGAAGGGCAGTGCC (sugars k3 d10 k3, PS): the target mRNA inhibition (SK-MEL-28, 4 µM) is 17%. “GTGTGCTTGCCAAGCC (sugars kkddddddddddkeke, PS)”: the target mRNA inhibition (MM.1R, 1 µM) was 37% and 47%. Consider CACCATTCAGACAGAT (sugars k3 d10 k3, PS), for which the target mRNA inhibition (SK-MEL-28, 4 µM) is -67%. Same read-out and setting: next, GAGAAACGGCCTGGAG (sugars k3 d10 k3, PS): 44%. Regarding CCATTGGAGGAGGGTT (sugars k3 d10 k3, PS), under “SK-MEL-28, 4 µM”, the target mRNA inhibition turned out to be 32%. The same measure, in the same setting: the same measure for CGTTCTCCCACACCAG (sugars k4 d8 k4, PS): -1%. For “GCAGTGATGTCAGGTT (sugars kkdddddddddekeke, PS)”, the target mRNA inhibition turned out to be 22% (MM.1R, 0.074 µM); 49% (MM.1R, 0.222 µM); 73% (MM.1R, 0.666 µM); 80% (MM.1R, 1 µM); 92% (MM.1R, 2 µM). With “ACGTGTGCTTGCCAAG (sugars kddddddddddkekek, PS)”, the target mRNA inhibition (MM.1R, 1 µM) is 47% and 37%. Take GCCGAGATATAAATAG (sugars k3 d10 k3, PS): under “SK-MEL-28, 4 µM”, the target mRNA inhibition was 40%.

As to ATCCACAATCAGCAAG (sugars k3 d10 k3, PS), the target mRNA inhibition (SK-MEL-28, 4 µM) turned out to be 51%. Still for that read-out and setting: next, GCTAACTGGCCTCAAA (sugars k3 d10 k3, PS): 9%. Same read-out and setting: the same measure for TATGCCATGGACAAGT (sugars k3 d10 k3, PS): 19%. With ACAGGACCTGGTCCAG (sugars k4 d8 k4, PS), the target mRNA inhibition (SK-MEL-28, 4 µM) was determined as 7%.
